Where two headings read alike, the source gives them in different places.
Tests used:
[1] = target: T1, Enterobacter soli LF7 MarR_Es (Enterobacter soli, UniProt A0AAW8H3I9, A146S); assay: ITC IAA binding to MarR_Es; settings: 25 °C, IacR
T1 sequence (A0AAW8H3I9 1-157 A146S): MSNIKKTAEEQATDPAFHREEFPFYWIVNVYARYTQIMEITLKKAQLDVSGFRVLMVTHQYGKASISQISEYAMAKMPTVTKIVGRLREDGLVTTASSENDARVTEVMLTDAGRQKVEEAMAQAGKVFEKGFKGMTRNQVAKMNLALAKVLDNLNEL
Description: All ITC measurements were performed at 25 °C using an Auto-ITC200 microcalorimeter (MicroCal/GE Healthcare). The buffer employed was 20 mM HEPES, pH 7.4, 50 mM NaCl and 0.5% dimethly sulfoxide (DMSO) for protein/ligand binding and 20 mM HEPES, pH 7.4 and 300 mM NaCl for DNA/protein binding experiments. For ligand binding experiments, the calorimetry cell (volume 200 ml) was loaded with MarR wild-type, mutant or homologue protein at a concentration of 50 μM. The syringe was loaded with a ligand concentration of 0.5 or 2 mM. […] A typical injection protocol included a single 0.2 μl first injection followed by 20 1.5 μl injections of the syringe sample into the calorimetry cell. The spacing between injections was kept at 180 s and the reference power at 8 μcal s^−1. The data were analysed using Origin for ITC version 7.0 software supplied by the manufacturer and fit well to a one-site binding model. Two independent ITC measurements were performed for each condition.

[2] = target: Bradyrhizobium japonicum MarR_Bj1 (Bradyrhizobium japonicum, UniProt A0A0A3XYM8); assay: ITC IAA binding to MarR_Bj1; settings: 25 °C, IadR (MarR_73-like)
Description: (§1) The coding sequence for each gene can be found in Supplementary Table 10. MarR expression plasmids were synthesized as codon-optimized genes for E. coli expression by BioBasic in the pLIC-His N-term vector (pMCSG7) and transformed into E. coli BL21 (DE3) Gold cells for expression. […] At an OD600 of 0.8, protein expression was induced by the addition of 0.1 mM IPTG and incubation continued overnight. Cells were collected by centrifugation at 4,500 × g for 20 min at 4 °C in a Sorvall (model RC-3B) swinging bucket centrifuge. Cell pellets were resuspended in buffer A (20 mM potassium phosphate, pH 7.4, 50 mM imidazole, 500 mM NaCl), DNase, lysozyme and a Roche Complete EDTA-free protease inhibitor tablet. Resuspended cells were sonicated and clarified via centrifugation at 17,000 × g for 60 min in a Sorvall (model RC-5B) swinging bucket centrifuge. The lysate was applied to a nickel-nitrilotriacetic acid HP column (GE Healthcare) on an Aktaxpress Fast Performance Liquid Chromatography (FPLC) system (Amersham Bioscience) and washed with buffer A. Protein was eluted with buffer B (20 mM potassium phosphate, pH 7.4, 500 mM imidazole, 500 mM NaCl). Fractions containing the protein of interest were combined and passed over a HiLoadTM 16/60 SuperdexTM 200 gel filtration column. Proteins were eluted in S200 buffer (20 mM HEPES, pH 7.4, 300 mM NaCl). […]

[3] = target: Variovorax paradoxus CL14 MarR_50; assay: ITC IAA binding to MarR_50 (IadR2); settings: 25 °C, IadR2 (MarR_50-like)
Description: as §1

MarR_73 S28A H32A R46A = assay: ITC IAA binding to MarR_73 S28A H32A R46A mutant; design: species or system Variovorax paradoxus CL14; settings: 25 °C
Description: as §1

[4] = target: Ruegaria pomeroyi MarR_3CDH (Ruegeria pomeroyi, UniProt Q5LTG1); assay: ITC IAA binding to MarR_3CDH; settings: 25 °C, IadR (MarR_73-like)
Description: The coding sequence for each gene can be found in Supplementary Table 10. MarR expression plasmids were synthesized as codon-optimized genes for E. coli expression by BioBasic in the pLIC-His N-term vector (pMCSG7) and transformed into E. coli BL21 (DE3) Gold cells for expression. […] At an OD600 of 0.8, protein expression was induced by the addition of 0.1 mM IPTG and incubation continued overnight. Cells were collected by centrifugation at 4,500 × g for 20 min at 4 °C in a Sorvall (model RC-3B) swinging bucket centrifuge. Cell pellets were resuspended in buffer A (20 mM potassium phosphate, pH 7.4, 50 mM imidazole, 500 mM NaCl), DNase, lysozyme and a Roche Complete EDTA-free protease inhibitor tablet. Resuspended cells were sonicated and clarified via centrifugation at 17,000 × g for 60 min in a Sorvall (model RC-5B) swinging bucket centrifuge. The lysate was applied to a nickel-nitrilotriacetic acid HP column (GE Healthcare) on an Aktaxpress Fast Performance Liquid Chromatography (FPLC) system (Amersham Bioscience) and washed with buffer A. Protein was eluted with buffer B (20 mM potassium phosphate, pH 7.4, 500 mM imidazole, 500 mM NaCl). Fractions containing the protein of interest were combined and passed over a HiLoadTM 16/60 SuperdexTM 200 gel filtration column. Proteins were eluted in S200 buffer (20 mM HEPES, pH 7.4, 300 mM NaCl). Fractions were combined and concentrated for long-term storage at −80 °C.
All ITC measurements were performed at 25 °C using an Auto-ITC200 microcalorimeter (MicroCal/GE Healthcare). The buffer employed was 20 mM HEPES, pH 7.4, 50 mM NaCl and 0.5% dimethly sulfoxide (DMSO) for protein/ligand binding and 20 mM HEPES, pH 7.4 and 300 mM NaCl for DNA/protein binding experiments. For ligand binding experiments, the calorimetry cell (volume […]) was loaded with MarR wild-type, mutant or homologue protein at a concentration of 50 μM. The syringe was loaded with a ligand concentration of 0.5 or 2 mM. […] A typical injection protocol included a single 0.2 μl first injection followed by 20 1.5 μl injections of the syringe sample into the calorimetry cell. The spacing between injections was kept at 180 s and the reference power at 8 μcal s^−1. […] Two independent ITC measurements were performed for each condition.

Ruegaria pomeroyi MarR_3CDH, sequence (Q5LTG1 entry or part of it): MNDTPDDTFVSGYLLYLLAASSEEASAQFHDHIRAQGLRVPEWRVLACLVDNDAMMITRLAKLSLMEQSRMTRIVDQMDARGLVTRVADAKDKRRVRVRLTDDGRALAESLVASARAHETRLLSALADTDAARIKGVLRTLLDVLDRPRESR
Bradyrhizobium japonicum MarR_Bj1, sequence (A0A0A3XYM8 entry or part of it): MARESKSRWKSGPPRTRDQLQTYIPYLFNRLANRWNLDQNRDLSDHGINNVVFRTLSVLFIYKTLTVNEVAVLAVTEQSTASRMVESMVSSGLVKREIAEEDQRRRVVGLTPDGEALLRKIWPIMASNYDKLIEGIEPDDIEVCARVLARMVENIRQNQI

`O=C(O)Cc1c[nH]c2ccccc12` [IAA, indole-3-acetic acid] was tested, and the N1 [1] was 0.967 ± 0.006, the N1 [2] was 1.001 ± 0.069 and the KD1 [3] was “No Binding”. For the same compound, the KD (MarR_73 S28A H32A R46A) was “No Binding”, the N1 ([4]; first site) was 0.411 ± 0.012 and the Kd ([4]; first site, read-out: KD1) was 237 ± 99 nM. The N2 ([4]; second site) was 0.216 ± 0.011 and the Kd ([4]; second site, read-out: KD2) was 6 nM.

Source: PMC9613470, “Diverse MarR bacterial regulators of auxin catabolism in the plant microbiome” (Nature Microbiology, 2022)
